| melting point [°C] | SMILES |
| --- | --- |
| 78 to 81 | COC(=O)NCC#Cc1ccc(OCCCOc2c(Cl)cc(OCC=C(Cl)Cl)cc2Cl)cc1 |
| 88 to 93 | CC(C)NC(=O)/C(C#N)=C/c1ccc(OCCCOc2c(Cl)cc(OCC=C(Cl)Cl)cc2Cl)cc1 |
| 100 to 103 | CO/N=C1/C=C(c2ccc(OCCCOc3c(Cl)cc(OCC=C(Cl)Cl)cc3Cl)cc2)CC1 |
